# Source: ChEMBL document CHEMBL3808333, “Design, synthesis and anticonvulsant activity of new hybrid compounds derived from N-phenyl-2-(2,5-dioxopyrrolidin-1-yl)-propanamides and -butanamides” (Bioorg Med Chem, 2016)
# Activity calls are given as the source filed them. The calls are words filed in the database; no cut-off is given here.
# Key:
# Mus musculus [1] = assay: Anticonvulsant activity in albino Swiss mouse assessed as protection against maximal electroshock-induced seizures pretreated for 2 hrs at 100 mg/kg, ip by maximal electroshock seizure test; type: functional, organism-based
# Mus musculus [2] = assay: Anticonvulsant activity in albino Swiss mouse assessed as protection against maximal electroshock-induced seizures pretreated for 0.5 hrs at 100 mg/kg, ip by maximal electroshock seizure test; type: functional
# Rattus norvegicus [3] = organism: Rattus norvegicus; assay: Displacement of [3H]Batrachotoxinin from voltage-sensitive sodium channel site 2 in rat cerebral cortex synaptoneurosomes at 500 uM measured after 60 mins by scintillation counting method; type: tissue-based
# Rattus norvegicus [4] = organism: Rattus norvegicus; assay: Displacement of [125I]omega-Conotoxin GVIA from N-type calcium channel in rat cerebral cortex synaptoneurosomes at 100 uM measured after 30 mins by scintillation counting method; type: tissue-based
# Rattus norvegicus [5] = organism: Rattus norvegicus; assay: Displacement of [125I]omega-Conotoxin GVIA from N-type calcium channel in rat cerebral cortex synaptoneurosomes at 200 uM measured after 30 mins by scintillation counting method; type: tissue-based
# Rattus norvegicus [6] = organism: Rattus norvegicus; assay: Displacement of [3H]diltiazem from L-type calcium channel diltiazem binding site in rat cerebral cortex synaptoneurosomes at 100 uM measured after 120 mins by scintillation counting method; type: tissue-based
# Rattus norvegicus [7] = organism: Rattus norvegicus; assay: Displacement of [3H]diltiazem from L-type calcium channel diltiazem binding site in rat cerebral cortex synaptoneurosomes at 200 uM measured after 120 mins by scintillation counting method; type: tissue-based
# Rattus norvegicus [8] = organism: Rattus norvegicus; assay: Displacement of [3H]nitrendipine from L-type calcium channel dihydropyridine site in rat cerebral cortex synaptoneurosomes at 100 uM measured after 90 mins by scintillation counting method; type: tissue-based
# Rattus norvegicus [9] = organism: Rattus norvegicus; assay: Displacement of [3H]nitrendipine from L-type calcium channel dihydropyridine site in rat cerebral cortex synaptoneurosomes at 200 uM measured after 90 mins by scintillation counting method; type: tissue-based
# Rattus norvegicus [10] = organism: Rattus norvegicus; assay: Displacement of [3H]D888 from L-type calcium channel verapamil binding site in rat cerebral cortex synaptoneurosomes at 100 uM measured after 120 mins by scintillation counting method; type: tissue-based
# Rattus norvegicus [11] = organism: Rattus norvegicus; assay: Displacement of [3H]D888 from L-type calcium channel verapamil binding site in rat cerebral cortex synaptoneurosomes at 200 uM measured after 120 mins by scintillation counting method; type: tissue-based
# Mus musculus [12] = assay: Anticonvulsant activity in albino Swiss mouse assessed as reduction in clonic seizures pretreated for 0.5 hrs at 100 mg/kg, ip measured after 30 mins by subcutaneous pentylenetetrazole seizure test; type: functional; parameters: scale not given: the % may be the effect or the level left
# Mus musculus [13] = assay: Acute neurotoxicity in albino Swiss mouse pretreated for 2 hrs at 100 mg/kg, ip by rotorod test; type: toxicity, organism-based; conditions: in vivo
# Mus musculus [14] = assay: Anticonvulsant activity in albino Swiss mouse assessed as protection against electrically-induced seizure pretreated for 0.5 hrs at 100 mg/kg, ip by 6Hz psychomotor seizure test; type: functional
# Mus musculus [15] = assay: Anticonvulsant activity in albino Swiss mouse assessed as protection against electrically-induced seizure pretreated for 2 hrs at 100 mg/kg, ip by 6Hz psychomotor seizure test; type: functional, organism-based
# Mus musculus [16] = assay: Anticonvulsant activity against albino Swiss mouse seizure model assessed as time to peak effect at 100 mg/kg, ip; type: functional
# Mus musculus [17] = organism: Mus musculus; assay: Anticonvulsant activity in albino Swiss mouse by maximal electroshock seizure test; type: functional
# Mus musculus [18] = assay: Anticonvulsant activity in albino Swiss mouse measured after 30 mins by subcutaneous pentylenetetrazole seizure test; type: functional; conditions: sc, 0.5 h
# Mus musculus [19] = organism: Mus musculus; assay: Anticonvulsant activity in albino Swiss mouse assessed as protection against electrically-induced seizure by 6Hz psychomotor seizure test; type: functional
# [20] = Acute neurotoxicity in albino Swiss mouse pretreated for 2 hrs by rotorod test; type: toxicity, organism-based; conditions: in vivo
# [21] = Protective index, ratio of TD50 for acute neurotoxicity in albino Swiss mouse to ED50 for anticonvulsant activity in albino Swiss mouse by 6Hz psychomotor seizure test; type: toxicity, organism-based; conditions: in vivo, read-out: Ratio TD50/ED50
# [22] = Protective index, ratio of TD50 for acute neurotoxicity in albino Swiss mouse to ED50 for anticonvulsant activity in albino Swiss mouse by subcutaneous pentylenetetrazole seizure test; type: toxicity, organism-based; conditions: in vivo, read-out: Ratio TD50/ED50
# [23] = Protective index, ratio of TD50 for acute neurotoxicity in albino Swiss mouse to ED50 for anticonvulsant activity in albino Swiss mouse by maximal electroshock seizure test; type: toxicity, organism-based; conditions: in vivo, read-out: Ratio TD50/ED50
# Mus musculus [24] = assay: Anticonvulsant activity in albino Swiss mouse assessed as reduction in clonic seizures pretreated for 2 hrs at 100 mg/kg, ip measured after 30 mins by subcutaneous pentylenetetrazole seizure test; type: functional, organism-based
# Mus musculus [25] = assay: Acute neurotoxicity in albino Swiss mouse pretreated for 0.5 hrs at 100 mg/kg, ip by rotorod test; type: toxicity, organism-based; conditions: in vivo
# Rattus norvegicus [26] = organism: Rattus norvegicus; assay: Displacement of [3H]Batrachotoxinin from voltage-sensitive sodium channel site 2 in rat cerebral cortex synaptoneurosomes at 100 uM measured after 60 mins by scintillation counting method; type: tissue-based
# Rattus norvegicus [27] = organism: Rattus norvegicus; assay: Displacement of [3H]Batrachotoxinin from voltage-sensitive sodium channel site 2 in rat cerebral cortex synaptoneurosomes at 200 uM measured after 60 mins by scintillation counting method; type: tissue-based
smiles,measurement,setting,value
CC(C(=O)Nc1ccc(C(F)(F)F)cc1)N1C(=O)CCC1=O (stereo not given),Activity,Mus musculus [1],inactive
CC1CC(=O)N(C(C)C(=O)Nc2cccc(F)c2)C1=O (stereo not given),Activity,Mus musculus [1],inactive
CC(C(=O)Nc1ccc(F)cc1)N1C(=O)CCC1=O (stereo not given),Activity,Mus musculus [2],inactive
same,Activity,Mus musculus [1],inactive
CC(C(=O)Nc1ccc(Cl)cc1)N1C(=O)CCC1=O (stereo not given),Activity,Mus musculus [2],inactive
NC(=O)N1c2ccccc2C=Cc2ccccc21,inhibition,Rattus norvegicus [3],33.6%
same,inhibition,Rattus norvegicus [4],-2.9%
same,inhibition,Rattus norvegicus [5],1.9%
same,inhibition,Rattus norvegicus [6],1.1%
same,inhibition,Rattus norvegicus [7],7.3%
same,inhibition,Rattus norvegicus [8],2.6%
same,inhibition,Rattus norvegicus [9],3.6%
same,inhibition,Rattus norvegicus [10],8.8%
same,inhibition,Rattus norvegicus [11],7.5%
CC(C(=O)Nc1cccc(C(F)(F)F)c1)N1C(=O)CCC1=O (stereo not given),Activity,Mus musculus [2],inactive
CCC(C(=O)Nc1cccc(Cl)c1)N1C(=O)CCC1=O (stereo not given),Activity,Mus musculus [2],75%
same,Activity,Mus musculus [1],inactive
same,Activity,Mus musculus [12],50%
same,Activity,Mus musculus [13],Non-toxic
same,Activity,Mus musculus [14],75%
same,Activity,Mus musculus [15],inactive
same,Time,Mus musculus [16],0.5 h
same,ED50,Mus musculus [17],> 130 mg/kg
same,ED50,Mus musculus [18],> 130 mg/kg
same,ED50,Mus musculus [19],43.4 mg/kg
same,TD50 at 2 h,[20],> 500 mg/kg
same,selectivity ratio,[21],> 11.5
CCC1(C)CC(=O)NC1=O (stereo not given) [ETHOSUXIMIDE],Time,Mus musculus [16],0.5 h
same,ED50,Mus musculus [17],> 500 mg/kg
same,ED50,Mus musculus [18],148 mg/kg
same,ED50,Mus musculus [19],> 200 mg/kg
same,selectivity ratio,[22],4.9
CCC(C(=O)Nc1ccc(Cl)cc1)N1C(=O)CCC1=O (stereo not given),Activity,Mus musculus [2],inactive
same,Activity,Mus musculus [1],inactive
CC(C(=O)Nc1cccc(F)c1)N1C(=O)CCC1=O (stereo not given),Activity,Mus musculus [1],inactive
CCC(C(=O)Nc1cccc(F)c1)N1C(=O)CCC1=O (stereo not given),Activity,Mus musculus [2],75%
same,Activity,Mus musculus [1],inactive
same,Activity,Mus musculus [13],Non-toxic
same,Activity,Mus musculus [14],Active
same,Activity,Mus musculus [15],inactive
same,Time,Mus musculus [16],0.5 h
same,ED50,Mus musculus [17],121 mg/kg
same,ED50,Mus musculus [19],41.4 mg/kg
same,TD50 at 2 h,[20],346 mg/kg
same,selectivity ratio,[23],2.9
same,selectivity ratio,[21],8.4
COC[C@@H](NC(C)=O)C(=O)NCc1ccccc1 [LACOSAMIDE],Time,Mus musculus [16],0.5 h
same,ED50,Mus musculus [17],9.4 mg/kg
same,ED50,Mus musculus [18],> 500 mg/kg
same,ED50,Mus musculus [19],6.4 mg/kg
same,selectivity ratio,[21],5.3
CC1CC(=O)N(C(C)C(=O)Nc2cccc(Cl)c2)C1=O (stereo not given),Activity,Mus musculus [2],75%
same,Activity,Mus musculus [12],75%
same,Activity,Mus musculus [24],inactive
same,Activity,Mus musculus [25],Non-toxic
same,Activity,Mus musculus [13],Non-toxic
same,Activity,Mus musculus [14],75%
same,Time,Mus musculus [16],0.5 h
same,ED50,Mus musculus [17],80.6 mg/kg
same,ED50,Mus musculus [18],58.4 mg/kg
same,ED50,Mus musculus [19],88.2 mg/kg
same,TD50 at 2 h,[20],279 mg/kg
same,selectivity ratio,[23],3.5
same,selectivity ratio,[22],4.8
same,selectivity ratio,[21],3.2
CCC(C(=O)Nc1ccccc1)N1C(=O)CCC1=O (stereo not given),Activity,Mus musculus [2],75%
same,Activity,Mus musculus [12],75%
same,Activity,Mus musculus [24],inactive
same,Activity,Mus musculus [25],Non-toxic
same,Activity,Mus musculus [13],Non-toxic
same,Activity,Mus musculus [14],Active
same,Activity,Mus musculus [15],inactive
same,Time,Mus musculus [16],0.5 h
same,ED50,Mus musculus [17],116 mg/kg
same,ED50,Mus musculus [18],75.4 mg/kg
same,ED50,Mus musculus [19],69.3 mg/kg
same,TD50 at 2 h,[20],398 mg/kg
same,selectivity ratio,[23],3.4
same,selectivity ratio,[22],5.3
same,selectivity ratio,[21],5.7
CC1CC(=O)N(C(C)C(=O)Nc2cccc(C(F)(F)F)c2)C1=O (stereo not given),Activity,Mus musculus [2],inactive
same,Activity,Mus musculus [1],inactive
CC1CC(=O)N(C(C)C(=O)Nc2ccccc2)C1=O (stereo not given),Activity,Mus musculus [1],inactive
CC(C(=O)Nc1ccccc1)N1C(=O)CCC1=O (racemic),Activity,Mus musculus [2],50%
same,Activity,Mus musculus [12],Active
same,Activity,Mus musculus [24],inactive
same,Activity,Mus musculus [14],Active
same,Time,Mus musculus [16],0.5 h
same,ED50,Mus musculus [17],96.9 mg/kg
same,ED50,Mus musculus [18],75.4 mg/kg
same,ED50,Mus musculus [19],44.3 mg/kg
same,TD50 at 2 h,[20],336 mg/kg
same,selectivity ratio,[23],3.5
same,selectivity ratio,[22],4.4
same,selectivity ratio,[21],7.6
same,inhibition,Rattus norvegicus [26],26.4%
same,inhibition,Rattus norvegicus [27],55.2%
same,inhibition,Rattus norvegicus [4],-6.5%
same,inhibition,Rattus norvegicus [5],1.3%
same,inhibition,Rattus norvegicus [6],10.8%
same,inhibition,Rattus norvegicus [7],43.7%
same,inhibition,Rattus norvegicus [8],-7.7%
same,inhibition,Rattus norvegicus [9],2.9%
same,inhibition,Rattus norvegicus [10],-0.8%
same,inhibition,Rattus norvegicus [11],-3.2%
CCCC(CCC)C(=O)O [VALPROIC ACID],Time,Mus musculus [16],0.5 h
CCC(C(=O)Nc1cccc(C(F)(F)F)c1)N1C(=O)CCC1=O (stereo not given),Activity,Mus musculus [2],inactive
same,Activity,Mus musculus [1],inactive
CCC(C(=O)Nc1ccc(F)cc1)N1C(=O)CCC1=O (stereo not given),Activity,Mus musculus [2],inactive
same,Activity,Mus musculus [1],inactive
CC1CC(=O)N(C(C)C(=O)Nc2ccc(Cl)cc2)C1=O (stereo not given),Activity,Mus musculus [1],inactive
CC1CC(=O)N(C(C)C(=O)Nc2ccc(C(F)(F)F)cc2)C1=O (stereo not given),Activity,Mus musculus [2],inactive
same,Activity,Mus musculus [1],inactive
CC(C(=O)Nc1cccc(Cl)c1)N1C(=O)CCC1=O (stereo not given),Activity,Mus musculus [2],75%
same,Activity,Mus musculus [1],inactive
same,Activity,Mus musculus [12],75%
same,Activity,Mus musculus [25],50%
same,Activity,Mus musculus [14],75%
same,Activity,Mus musculus [15],inactive
same,Time,Mus musculus [16],0.5 h
same,ED50,Mus musculus [17],105 mg/kg
same,ED50,Mus musculus [18],87.7 mg/kg
same,ED50,Mus musculus [19],74.5 mg/kg
same,TD50 at 2 h,[20],> 500 mg/kg
same,selectivity ratio,[23],> 4.8
same,selectivity ratio,[22],> 5.7
same,selectivity ratio,[21],> 6.7
CCC(C(=O)Nc1ccc(C(F)(F)F)cc1)N1C(=O)CCC1=O (stereo not given),Activity,Mus musculus [2],inactive
same,Activity,Mus musculus [1],inactive
CC1CC(=O)N(C(C)C(=O)Nc2ccc(F)cc2)C1=O (stereo not given),Activity,Mus musculus [2],inactive
same,Activity,Mus musculus [1],inactive
CC[C@@H](C(N)=O)N1CCCC1=O,Time,Mus musculus [16],1 h
same,ED50,Mus musculus [17],> 500 mg/kg
same,ED50,Mus musculus [18],> 500 mg/kg
same,TD50 at 2 h,[20],> 500 mg/kg
